The target in the assay is T1, wild type AR (Homo sapiens, UniProt P10275).
T1 construct: expressed in transfected cells
T1 sequence (P10275 1-920): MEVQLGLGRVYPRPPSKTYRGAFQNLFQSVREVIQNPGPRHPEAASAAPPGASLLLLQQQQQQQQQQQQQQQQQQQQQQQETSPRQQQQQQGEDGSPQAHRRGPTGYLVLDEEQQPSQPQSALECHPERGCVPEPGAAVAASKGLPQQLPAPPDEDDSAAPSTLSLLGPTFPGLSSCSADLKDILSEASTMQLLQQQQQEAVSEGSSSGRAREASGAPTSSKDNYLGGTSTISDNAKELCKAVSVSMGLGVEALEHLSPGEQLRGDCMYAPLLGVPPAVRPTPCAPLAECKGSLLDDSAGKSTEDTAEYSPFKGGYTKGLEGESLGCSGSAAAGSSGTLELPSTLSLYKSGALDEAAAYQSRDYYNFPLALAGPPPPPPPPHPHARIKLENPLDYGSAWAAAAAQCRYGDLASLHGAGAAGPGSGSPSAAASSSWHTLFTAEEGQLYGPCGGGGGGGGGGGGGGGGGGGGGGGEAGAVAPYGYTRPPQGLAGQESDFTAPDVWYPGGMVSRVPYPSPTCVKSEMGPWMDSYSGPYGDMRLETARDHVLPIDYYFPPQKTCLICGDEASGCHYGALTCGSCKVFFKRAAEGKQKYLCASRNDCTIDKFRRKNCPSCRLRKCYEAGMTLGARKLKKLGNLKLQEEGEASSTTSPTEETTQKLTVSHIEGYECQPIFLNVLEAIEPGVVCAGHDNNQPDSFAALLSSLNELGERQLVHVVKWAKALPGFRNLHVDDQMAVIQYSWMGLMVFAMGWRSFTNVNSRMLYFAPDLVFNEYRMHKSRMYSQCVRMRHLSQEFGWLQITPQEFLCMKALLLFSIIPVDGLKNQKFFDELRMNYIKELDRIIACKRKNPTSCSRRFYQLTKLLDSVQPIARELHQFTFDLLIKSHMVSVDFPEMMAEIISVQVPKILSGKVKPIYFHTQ
The format is cell-based. On the procedure:
To determine the global effect of the various AIS mutations on AR signaling, each was analyzed using HCA. This technology allows simultaneous quantification of AR protein expression, nuclear translocation, subnuclear patterning, and transcriptional activity. The analysis was done in HeLa cell lines stably transfected with wild type or mutant ARs fused with green fluorescent protein, or using AR immunofluorescence in primary cultures of genital skin fibroblasts generated from foreskin biopsies of historical AIS patients, or of normal neonates undergoing circumcision at birth. To prevent the effects of receptor over-expression, stable HeLa cells were carefully selected to express AR levels similar to LNCaP as previously described. Prior to ligand treatment, HeLa cells were transfected with the pARR2PB-dsRED2skl reporter plasmid, consisting of the AR responsive promoter ARR2PB [31] driving expression of the red fluorescent protein reporter dsRED2skl engineered to target peroxisomes.
For studies utilizing HeLa GFP-AR cell lines, twenty-four hours before transfection with pARR2PB-dsRED2skl, cells were plated onto 100 mm plastic dishes in medium supplemented with 5% charcoal-stripped and dialyzed-FBS. Transient introduction of the pARR-2PB-dsRED2skl reporter construct was performed using 6.0 µg reporter plasmid and 6.0 µg carrier DNA (BlueScript, Stratagene, San Diego, CA) using Transfectin (Biorad) following standard protocols. After 8-hour incubation, DNA/lipid complexes were removed. Cells were then trypsinized and replated at 10,000 cells per well in Nunc poly-D-lysine treated 96-well optical glass bottom plates and incubated an additional 12 hours to allow for cell adhesion. […] Compound dilutions and final addition to multi-well plates were performed using a Beckman Biomek NX robotic platform to ensure repeatability from experiment to experiment. After incubation was complete, using the Biomek NX robot, plates were washed with PBS and fixed for 20 min at RT in 4% formaldehyde prepared in CSK buffer (80 mM potassium PIPES, pH 6.8, 5 mM EGTA, 2 mM MgCl2). After fixation, cells were briefly permeabilized (5 min) with 0.5% Triton-X and prepared for imaging by washing in PBS, aspirating the washed solution, and adding a 1 ng/ml DAPI solution to stain DNA and a generic protein stain (CellMask, Invitrogen) to facilitate cell and nuclear image segmentation. Cells were imaged in PBS.
Cells were imaged using the Cell Lab IC-100 Image Cytometer (IC-100; Beckman Coulter) platform that consists of 1) Nikon Eclipse TE2000-U Inverted Microscope (Nikon; Melville, NY); 2) Chroma 82000 triple band filter set (Chroma; Brattleboro, VT); 3) an imaging camera: Hamamatsu ORCA-ER Digital CCD camera (Hamamatsu; Bridgewater, NJ); and 4) a focusing camera: Photonics COHU Progressive scan camera (Photonics; Oxford, MA). […] In general, 49 to 64 images were captured per well for image analysis.
Initially, the background signal was removed from all images using plate- and channel-specific correction images, generated by the sum projection of >600 randomly selected images for each channel from the image set. This allows for a pixel-by-pixel background subtraction that compensates any consistent uneven background artifacts in the image set. Furthermore, users are able to customize the degree of background subtraction by applying a multiplier to each correction image, useful for identification of objects such as nuclei or cell borders. […]

This note sets out measurements from PMC2785468, “Androgen Receptor Mutations Associated with Androgen Insensitivity Syndrome: A High Content Analysis Approach Leading to Personalized Medicine” (PLoS ONE, 2009).

Molecules are shown by their SMILES.

Turning to `C[C@@H]1CC2=CC(=O)CC[C@@H]2[C@H]2CC[C@@]3(C)[C@@H](CC[C@]3(C)O)[C@@H]21` [Mb, Mibolerone], the “Percent Signal in Nucleus, Max” value (HeLa Wild Type, % signal present in the nucleus, Mean±S.E.M.) is reported as 80.5±1.9%. Besides, the “Hyperspeckling, Max” value (HeLa Wild Type, absolute numerical measurement) is reported as 1101±61. Further, the “Transcriptional Activity, Max” value (HeLa Wild Type, pARR2PB-dsRED2skl reporter, absolute numerical measurement) turned out to be 113±1.4. Where the note is “HeLa wild type GFP-AR, vs untreated”, the “increase in the percent of the GFP signal in the nucleus” value is given as “approximately 30%”. Also, the “factor between EC50 for nuclear translocation and EC50 for hyperspeckling and transcriptional activity” value (HeLa-AR cells, 1440 min) is given as “approximately 30 fold”.
